According to ChEMBL document CHEMBL1201862, “PubChem BioAssay data set” (2004):
Active and inactive are the calls of the source.

Legend:
[1] = target: T1, Oxysterols receptor LXR-beta (Homo sapiens, UniProt P55055); type: functional, cell-based;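 also: agonist activity at LXR measured by a cell-based luminescence readout across a dose range, run as a counterscreen for daf-12 agonists; HEK293 cells with Gal4-LXR fusion and GAL4-driven luciferase reporter; potency for activation of Gal4-LXR reporter so compounds are agonists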
T1 sequence (P55055 whole entry): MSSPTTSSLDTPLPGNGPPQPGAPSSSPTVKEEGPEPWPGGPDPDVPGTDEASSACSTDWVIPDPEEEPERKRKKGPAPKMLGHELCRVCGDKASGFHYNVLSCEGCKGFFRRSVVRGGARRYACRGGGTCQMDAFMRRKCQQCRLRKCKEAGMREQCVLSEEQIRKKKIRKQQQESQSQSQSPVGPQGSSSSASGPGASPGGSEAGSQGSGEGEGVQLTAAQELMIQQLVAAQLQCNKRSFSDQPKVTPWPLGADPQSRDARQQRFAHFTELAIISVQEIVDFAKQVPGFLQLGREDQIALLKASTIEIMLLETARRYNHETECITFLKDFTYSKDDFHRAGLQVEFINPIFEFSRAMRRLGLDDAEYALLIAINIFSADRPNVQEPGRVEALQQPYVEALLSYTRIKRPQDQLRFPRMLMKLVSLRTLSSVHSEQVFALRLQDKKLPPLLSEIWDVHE

Cytochrome P450 2C9 = Cytochrome P450 2C9 (Homo sapiens, UniProt P11712); conditions: Potency
Nonstructural protein 1 = Nonstructural protein 1 (Influenza A virus, UniProt Q194T2); type: functional, Influenza A virus (A/California/07/2009(H1N1))
[2] = target: T2, Short transient receptor potential channel 4 (Mus musculus, UniProt Q9QUQ5); experiment: calcium entry via TRPC4 opening agents – cell-based, HEK293 TRPC4/mu-opioid, Fluo-4 calcium, dose response (AID 434937); type: functional
T2 sequence (Q9QUQ5 whole entry): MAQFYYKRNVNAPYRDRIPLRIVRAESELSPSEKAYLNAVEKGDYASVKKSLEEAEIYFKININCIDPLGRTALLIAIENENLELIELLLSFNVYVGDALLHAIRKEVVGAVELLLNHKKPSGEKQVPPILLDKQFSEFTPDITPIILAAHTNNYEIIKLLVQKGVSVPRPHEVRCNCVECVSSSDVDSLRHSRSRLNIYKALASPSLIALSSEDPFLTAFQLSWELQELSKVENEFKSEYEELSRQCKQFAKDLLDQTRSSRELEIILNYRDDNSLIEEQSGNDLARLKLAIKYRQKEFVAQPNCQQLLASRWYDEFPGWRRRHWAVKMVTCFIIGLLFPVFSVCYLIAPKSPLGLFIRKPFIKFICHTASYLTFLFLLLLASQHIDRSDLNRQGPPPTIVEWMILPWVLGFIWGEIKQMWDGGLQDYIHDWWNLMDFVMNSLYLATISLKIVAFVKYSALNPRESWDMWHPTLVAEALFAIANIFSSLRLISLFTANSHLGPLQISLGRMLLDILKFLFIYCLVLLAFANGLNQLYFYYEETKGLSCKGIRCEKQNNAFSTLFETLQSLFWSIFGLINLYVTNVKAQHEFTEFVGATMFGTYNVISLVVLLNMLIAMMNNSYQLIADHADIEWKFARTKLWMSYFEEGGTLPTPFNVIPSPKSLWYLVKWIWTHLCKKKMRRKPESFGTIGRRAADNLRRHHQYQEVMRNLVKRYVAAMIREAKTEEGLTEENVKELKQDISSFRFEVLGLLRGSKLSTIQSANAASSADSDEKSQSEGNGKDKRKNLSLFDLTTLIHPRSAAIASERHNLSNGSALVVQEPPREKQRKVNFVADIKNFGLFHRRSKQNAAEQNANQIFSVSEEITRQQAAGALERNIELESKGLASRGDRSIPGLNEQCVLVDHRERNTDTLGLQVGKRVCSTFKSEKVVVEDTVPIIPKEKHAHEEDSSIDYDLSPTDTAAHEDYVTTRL

[3] = HGIII-sPLA2 enzyme inhibition potency – biochemical, QFRET, IC50, dose response (AID 743457);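 also: green fluorescence rise as the enzyme cleaves BODIPY PC-A2 in liposomes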
fMet-Leu-Phe receptor = target: T3, fMet-Leu-Phe receptor (Homo sapiens, UniProt P21462); experiment: formyl peptide receptor binders – dose response (AID 519); type: functional
T3 sequence (P21462 whole entry): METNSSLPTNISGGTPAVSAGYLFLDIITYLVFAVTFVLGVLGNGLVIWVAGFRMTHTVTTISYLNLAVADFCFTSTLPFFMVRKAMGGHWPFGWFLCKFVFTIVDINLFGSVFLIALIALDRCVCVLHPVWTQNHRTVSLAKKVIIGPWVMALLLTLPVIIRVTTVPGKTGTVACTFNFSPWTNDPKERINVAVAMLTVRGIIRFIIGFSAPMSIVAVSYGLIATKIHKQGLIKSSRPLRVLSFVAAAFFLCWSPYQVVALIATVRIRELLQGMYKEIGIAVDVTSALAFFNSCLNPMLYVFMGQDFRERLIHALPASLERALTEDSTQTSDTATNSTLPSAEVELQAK

[4] = viability of uninfected HEp-2 cells – cell-based, HTS, cytotoxicity control for RSV inhibitor project, dose response (AID 2410); type: functional; conditions: human respiratory syncytial virus
[5] = target: T4, Rac GTPase-activating protein 1 (Homo sapiens, UniProt Q9H0H5); experiment: blockers of MgcRacGAP-driven Rac1 GTP hydrolysis – biochemical, ADP Hunter fluorescence, primary and confirmatory, confirmation (AID 624330); type: functional
T4 sequence (Q9H0H5 whole entry): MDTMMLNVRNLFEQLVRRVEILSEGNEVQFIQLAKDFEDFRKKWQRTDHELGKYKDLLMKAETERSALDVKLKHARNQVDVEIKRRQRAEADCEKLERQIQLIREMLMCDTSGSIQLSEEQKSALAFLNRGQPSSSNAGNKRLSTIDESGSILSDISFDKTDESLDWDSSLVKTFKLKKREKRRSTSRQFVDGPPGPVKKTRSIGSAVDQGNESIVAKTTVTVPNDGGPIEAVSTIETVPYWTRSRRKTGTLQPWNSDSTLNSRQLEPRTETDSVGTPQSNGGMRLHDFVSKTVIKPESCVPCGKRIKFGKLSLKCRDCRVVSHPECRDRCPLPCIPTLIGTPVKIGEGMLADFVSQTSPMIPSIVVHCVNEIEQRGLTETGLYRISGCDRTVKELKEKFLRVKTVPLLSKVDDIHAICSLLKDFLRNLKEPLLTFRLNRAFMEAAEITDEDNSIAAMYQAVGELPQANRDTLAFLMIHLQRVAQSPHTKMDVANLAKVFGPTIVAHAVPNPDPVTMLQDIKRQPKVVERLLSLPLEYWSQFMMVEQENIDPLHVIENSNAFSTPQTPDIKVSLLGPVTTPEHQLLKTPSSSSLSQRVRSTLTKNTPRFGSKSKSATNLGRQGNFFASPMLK

[6] = Luminescence Cell-Based Dose Confirmation HTS to Identify Inhibitors of Platelet Dense Granule Release. [Related pubchem assays: 1663 (Primary HTS), 1678 (Summary of Project)]; type: functional
[7] = target: Luciferin 4-monooxygenase (Photinus pyralis, UniProt P08659); experiment: inhibition of purified Photinus pyralis luciferase – biochemical, luminescence, dose response (AID 1891)
Leucine aminopeptidase = target: T5, Leucine aminopeptidase (Plasmodium falciparum 3D7, UniProt Q8IL11); experiment: P. falciparum M17LAP inhibitors, primary screen, biochemical, fluorogenic H-Leu-NHMec substrate, 1536-well (AID 1619); type: functional
T5 sequence (Q8IL11 whole entry): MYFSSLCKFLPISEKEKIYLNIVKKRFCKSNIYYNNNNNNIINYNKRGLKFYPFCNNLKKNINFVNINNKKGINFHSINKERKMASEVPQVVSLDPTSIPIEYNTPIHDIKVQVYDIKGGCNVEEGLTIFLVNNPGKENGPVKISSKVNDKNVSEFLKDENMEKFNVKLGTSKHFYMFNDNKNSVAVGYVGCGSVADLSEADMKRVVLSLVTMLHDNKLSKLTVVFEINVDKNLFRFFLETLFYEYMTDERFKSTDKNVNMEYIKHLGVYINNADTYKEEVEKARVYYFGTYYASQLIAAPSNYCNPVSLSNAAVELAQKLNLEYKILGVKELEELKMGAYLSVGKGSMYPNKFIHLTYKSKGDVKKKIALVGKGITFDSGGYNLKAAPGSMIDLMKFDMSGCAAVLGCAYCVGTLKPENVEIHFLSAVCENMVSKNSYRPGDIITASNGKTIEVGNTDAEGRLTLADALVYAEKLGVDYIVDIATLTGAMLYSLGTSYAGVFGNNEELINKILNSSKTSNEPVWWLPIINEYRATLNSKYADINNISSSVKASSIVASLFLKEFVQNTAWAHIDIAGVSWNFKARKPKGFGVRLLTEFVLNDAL

Protein Tat = target: T6, Protein Tat (Human immunodeficiency virus type 1 group M subtype B (isolate HXB2)(HIV-1), UniProt P04608); type: functional;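 also: tat binding to TAR RNA read out by fluorescence polarization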
T6 sequence (P04608 whole entry): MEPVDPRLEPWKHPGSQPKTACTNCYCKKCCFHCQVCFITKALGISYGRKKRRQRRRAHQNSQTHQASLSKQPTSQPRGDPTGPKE

[8] = viability loss in THP-1 monocytes – THP-1 cells, cytotoxicity control for Vif-APOBEC3G degradation inhibitor project, dose response (AID 1117359); type: functional; conditions: THP-1
[9] = cytotoxicity in MITF-independent A375 cells – cell-based, CellTiter-Glo luminescence, dry powder, set 4, counter-screen for MITF inhibitor project, dose response (AID 624364); type: functional; conditions: A-375;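 also: A375 melanoma cells are MITF independent so this is a counter screen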
[10] = viability loss in MITF-independent A375 cells – cell-based, CellTiter-Glo luminescence, dry powder, set 2, counter-screen for MITF inhibitor project, dose response (AID 624489); type: functional; conditions: A-375;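 also: actives are compounds lowering A375 viability meaning general cytotoxicity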
[11] = P. falciparum Dd2 growth inhibitors, dose response, SYBR Green, cherry-picked samples (AID 1159567); type: functional, cell-based
[12] = toxicity to human hepatoma HepG2 cells – cell-based, cherry-picked samples, cytotoxicity control, dose response (AID 1159577); type: functional
[13] = Dd2 malaria parasite growth inhibition potency – SYBR Green, dry powder samples, dose response (AID 1159566); type: functional, cell-based;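 also: potency for growth inhibition with lower SYBR green DNA signal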
[14] = growth inhibition of PfATP4-mutant resistant parasites – NITD609-resistant line, SYBR Green, dry powder, dose response (AID 1159571); type: functional, cell-based;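 also: parasites synchronized at ring stage by sorbitol before testing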
[15] = growth inhibition of yeast DHODH-expressing 3D7 parasites – SYBR Green, dry powder samples, dose response (AID 1159570); type: functional, cell-based;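 also: parasite growth measured after 72 hours of compound exposure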
[16] = Dd2 parasite growth inhibition in erythrocytes – SYBR Green, dry powder samples, set 9, dose response (AID 1159568); type: functional, cell-based

Sequence of Cytochrome P450 2C9 (P11712 whole entry): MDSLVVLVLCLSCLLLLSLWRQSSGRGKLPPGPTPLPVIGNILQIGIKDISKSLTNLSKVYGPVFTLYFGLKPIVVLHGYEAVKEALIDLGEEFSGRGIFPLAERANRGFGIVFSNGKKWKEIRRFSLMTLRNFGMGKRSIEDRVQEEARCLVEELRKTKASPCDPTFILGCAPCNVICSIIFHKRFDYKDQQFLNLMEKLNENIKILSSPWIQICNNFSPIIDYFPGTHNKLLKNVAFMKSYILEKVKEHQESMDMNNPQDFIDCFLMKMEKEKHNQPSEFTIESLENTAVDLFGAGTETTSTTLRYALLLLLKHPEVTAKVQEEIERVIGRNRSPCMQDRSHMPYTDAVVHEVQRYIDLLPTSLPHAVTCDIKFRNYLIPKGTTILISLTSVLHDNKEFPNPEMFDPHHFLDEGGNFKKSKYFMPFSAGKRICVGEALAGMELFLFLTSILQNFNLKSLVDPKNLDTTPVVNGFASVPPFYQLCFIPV
Sequence of Nonstructural protein 1 (Q194T2 whole entry): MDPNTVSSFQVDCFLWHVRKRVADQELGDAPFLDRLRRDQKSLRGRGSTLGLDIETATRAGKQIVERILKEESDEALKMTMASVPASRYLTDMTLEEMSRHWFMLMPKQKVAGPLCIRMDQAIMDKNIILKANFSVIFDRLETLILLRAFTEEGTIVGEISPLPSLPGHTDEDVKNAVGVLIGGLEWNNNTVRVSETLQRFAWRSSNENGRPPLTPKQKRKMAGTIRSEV
Sequence of Luciferin 4-monooxygenase (P08659 whole entry): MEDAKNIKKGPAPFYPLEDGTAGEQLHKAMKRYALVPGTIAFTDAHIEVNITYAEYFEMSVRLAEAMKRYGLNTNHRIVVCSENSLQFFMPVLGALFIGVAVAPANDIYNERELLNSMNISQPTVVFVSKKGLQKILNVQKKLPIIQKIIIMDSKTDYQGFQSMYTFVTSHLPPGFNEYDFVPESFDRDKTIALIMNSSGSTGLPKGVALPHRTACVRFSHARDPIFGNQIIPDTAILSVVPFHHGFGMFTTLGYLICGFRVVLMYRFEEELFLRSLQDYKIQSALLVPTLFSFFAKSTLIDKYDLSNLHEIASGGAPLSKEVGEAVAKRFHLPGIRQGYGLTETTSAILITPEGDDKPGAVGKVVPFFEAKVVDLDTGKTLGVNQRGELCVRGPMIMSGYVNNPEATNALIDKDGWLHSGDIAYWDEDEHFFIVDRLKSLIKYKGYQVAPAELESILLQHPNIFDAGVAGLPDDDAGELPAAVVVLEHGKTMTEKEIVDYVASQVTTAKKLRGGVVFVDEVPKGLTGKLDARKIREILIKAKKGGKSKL

Clc1ccccc1Nc1nc2ccccc2o1
EC50 [1]: > 67.6 µM (inactive)

CCCCC#CC1C=CC(Oc2cc(OC)c(OC)c(OC)c2)C(COC(=O)OCC)O1 (centres undefined)
AC50 (Cytochrome P450 2C9): 6.31 µM (inconclusive)

c1ccc(CSc2ccc(-c3ccccn3)nn2)nc1
IC50 (Nonstructural protein 1): 4.94 µM (active) | EC50 [1]: > 67.5 µM (inactive)

COc1ccc(C(=O)NC(=S)NNC(=O)c2c(-c3ccccc3)noc2C)cc1
EC50 [2]: 3.76 µM (active) | IC50 [3]: 24.2 µM (inactive)

Cc1ccc(C2C(C(=O)c3cnn(-c4ccccc4)c3C)=C(O)C(=O)N2CCN2CCOCC2)o1 (centres undefined)
Ki (fMet-Leu-Phe receptor): 23.2 µM (inactive)

c1ccc(CCn2c3ccccc3c3nnc(SCc4ccc5nonc5c4)nc32)cc1
IC50 (cells): 28.3 µM (active) | CC50 [4]: 22.3 µM (active)

CC(=O)OCCNc1cc(N2CCN(C)CC2)c2noc3c2c1C(=O)c1ccccc1-3
IC50 (Nonstructural protein 1): 24.1 µM (active) | IC50 [5]: 117 µM (active) | Ki (fMet-Leu-Phe receptor): > 66.7 µM (inactive)

O=S(=O)(Nc1cccc(-c2ccc(N3CCOCC3)nn2)c1)c1cc(Cl)ccc1Cl
IC50 (cells): 8.9 µM (active) | CC50 [4]: 23.5 µM (active)

O=C1CCCN1c1ccc(C(=O)N(Cc2nnc(-c3ccccc3Cl)o2)C2CC2)cc1
IC50 (cells): 18.8 µM (active) | CC50 [4]: 48.5 µM (active)

CC(C)C[C@@H](CC(=O)N[C@@H](CCCN)CC(=O)N[C@@H]1CCCC[C@H]1C(=O)N[C@H](CC(=O)N[C@@H](CCC(=O)O)CC(=O)O)Cc1c[nH]c2ccccc12)NC(=O)[C@@H]1CCCC[C@H]1N
AC50 (Cytochrome P450 2C9): 39.8 µM (inconclusive)

CSc1ncnc2c1ncn2CC(=O)[C@H]1CC[C@H]2[C@H]3CCC4=CC(=O)CC[C@@]4(C)[C@@H]3CC[C@@]12C
AC50 (Cytochrome P450 2C9): 3.16 µM (inconclusive)

O=C(Cn1cnc2c(cnn2-c2ccc(F)cc2)c1=O)OCc1ccccc1
EC50 [6]: > 112 µM (not active) | EC50 [7]: > 112 µM (not active) | Ki (fMet-Leu-Phe receptor): > 66.7 µM (inactive)

COc1ccc(CNC(=O)Cc2c(C(=O)O)[nH]c3ccccc23)cc1
IC50 (Leucine aminopeptidase): 35.6 µM (active)

C[C@@H]1CN([C@@H](C)CO)C(=O)c2cc(NC(=O)Nc3ccccc3)ccc2O[C@@H](C)CCCCO[C@H]1CN(C)C(=O)Nc1ccc(C(F)(F)F)cc1
IC50 (Protein Tat): > 100 µM (active) | CC50 [8]: 36.3 µM (active)

O=C(NC1=C(N2CCSCC2)C(=O)c2ccccc2C1=O)c1ccc(Br)cc1
AC50 [9]: > 70 µM (inactive) | AC50 [10]: 49.9 µM (active)

O=C1C(NS(=O)(=O)c2ccc(Br)cc2)=C(c2ccccc2)C(=O)c2ccccc21
AC50 [9]: > 70 µM (inactive) | AC50 [10]: > 70 µM (inactive)

C=CCNC1=C(Nc2ccccc2)C(=O)c2ccccc2C1=O
AC50 [9]: > 70 µM (inactive) | AC50 [10]: > 70 µM (inactive)

Cc1cccc(N/N=C(\C#N)S(=O)(=O)C(C)(C)C)c1
IC50 (Leucine aminopeptidase): 19 µM (active)

C[C@@H]1CN([C@@H](C)CO)C(=O)c2c(c3ccccc3n2C)-c2ccccc2CO[C@@H]1CN(C)Cc1ccccc1C(F)(F)F
AC50 [11]: 1.47 µM (active) | AC50 [12]: 8.34 µM (active)

N#C[C@@H]1[C@H](c2ccccc2C2=CCCCC2)[C@@H](CO)N1C(=O)c1cccc(F)c1
AC50 [13]: 1.93 µM (active) | AC50 [14]: 7.9 µM (active) | AC50 [11]: 2.74 µM (active) | AC50 [15]: 2.12 µM (active)

C/C=C/c1ccc([C@H]2[C@@H](CO)N(CC3CCCCC3)[C@H]2CNC(C)C)cc1
AC50 [16]: 5.66 µM (active)

COc1ccc(S(=O)(=O)Nc2ccc3c(c2)C(=O)N([C@H](C)CO)C[C@@H](C)[C@@H](CN(C)S(=O)(=O)c2ccc(Cl)cc2)OCCCC[C@@H](C)O3)cc1
AC50 [16]: 0.742 µM (active)
